For one experiment, the system named is TNF-α. Put plainly: TNF-α ELISA, RAW 264.7 macrophages. Format: cell-based, murine. Here is the method:
(§1) In (A) and (C), cells (5×10^5/ml) were incubated with polyenylpyrrole derivatives or DMSO (vehicle) for 30 min followed by stimulating with LPS (1 μg/ml) for 24 h, then NO (A), IL-6 and TNF-α (C) concentration in culture medium were assayed by Griess reaction and ELISA, respectively. In (B), cells (5×10^5/ml) were pretreated with polyenylpyrrole derivatives or DMSO for 30 min followed by stimulating with LPS (1 μg/ml) for 24 h, then the protein expression of iNOS and COX-2 were assayed by Western blot.
(§2) The effects of tested samples on IL-1β, TNF-α and IL-6 production were measured by ELISA according to the manufacturer's instruction. In brief, 50 μl of biotinylated antibody reagent and 50 μl of supernatant were added to an anti-mouse IL-1β, TNF-α and IL-6 precoated stripwell plate, and incubated at room temperature for 2 h. After washing the plate three times with washing buffer, 100 μl of diluted streptavidin-HRP concentrate was added to each well and incubated at room temperature for 30 min. The washing process was repeated; then 100 μl of a premixed tetramethylbenzidine substrate solution was added to each well and developed at room temperature in the dark for 30 min. Following the addition of 100 μl of stop solution to each well to stop the reaction, the absorbance of the plate was measured by a microplate reader at 450 nm wavelength.
For orientation: In an ELISA, binding on a coated surface is turned into a signal by an enzyme label.

The subject of the next experiment is IL-6. The experiment in a line: IL-6 ELISA, LPS-activated peritoneal macrophages. Format: cell-based, C57BL/6 mice. As to conditions: LPS 1 μg/ml 24 h. How it is done:
(A) J774A.1 macrophages (4×10^5/ml), (B) peritoneal macrophages (4×10^5/ml), and (C) JAWSII dendritic cells (4×10^5/ml) were incubated with compound 1h or DMSO for 30 min followed by stimulating with LPS (1 μg/ml) for 24 h, then IL-6 and TNF-α concentration in culture medium were assayed by ELISA. The data are expressed as the mean±SD for three separate experiments. *, **, and *** indicate a significant difference at the level of p<0.05, p<0.01, p<0.001 respectively compared to LPS group.
as §2

In the next experiment the test system is IKK-α and IκB-α. The experiment in a line: Western blot of IKK-α and IκB-α, LPS-activated J774A.1 macrophages. The class given is cell-based, murine. As to conditions: LPS-activated J774A.1, LPS 20 min. How it is done: (§3) (A) RAW 264.7 macrophages (5×10^5/ml) or (B) J774A.1 macrophages (5×10^5/ml) were incubated with compound 1h or DMSO for 30 min followed by LPS (1 μg/ml) stimulating for 20 min, then the phosphorylation levels of IKK-α and IκB-α and total IκB-α protein level were analyzed by Western blot. (C) RAW 264.7 macrophages (5×10^5/ml) or (D) J774A.1 macrophages (5×10^5/ml) were incubated with compound 1h (10-40 μM) or DMSO for 30 min followed by LPS (1 μg/ml) stimulating for 20 min, then the nuclear translocation of NF-κB were analyzed by ELISA. (E) RAW-Blue™ cells (5×10^5/ml) were incubated with compound 1h (2.5-40 μM) or DMSO for 30 min followed by LPS (1 μg/ml) stimulating for 24 h, then the SEAP activity was measured by QUANTI-Blue™. […] In (C), (D), and (E), the data are expressed as the mean±SD for three separate experiments. *, **, and *** indicate a significant difference at the level of p<0.05, p<0.01, and p<0.001 respectively compared to LPS group.
(§4) Whole cell lysates were separated by SDS-PAGE and electrotransferred to a PVDF membrane. The membranes were incubated in blocking solution—5% nonfat milk in phosphate buffered saline with 0.1% Tween 20—at room temperature for 1 h. Each membrane was incubated with a specific primary antibody at room temperature for 2 h. After washing three times in PBS with 0.1% Tween 20, the membrane was incubated with an HRP-conjugated secondary antibody directed against the primary antibody. The membrane was developed by an enhanced chemiluminescence Western blot detection system.
(In general: In western blotting, separated proteins are transferred to a membrane and probed.)

Another experiment deals with PKC-α. Put plainly: Western blot of PKC-α phosphorylation, ATP-activated LPS-primed J774A.1 macrophages. The class given is cell-based, murine. Particulars: compound 1h 20 μM. How it is done: In (A), J774A.1 macrophages (1×10^6/ml) were incubated with LPS (1 μg/ml) for 5.5 h and then incubated with compound 1 h ([…]), DPI (100 μM), or DMSO (vehicle) for 30 min followed by ATP (5 mM) stimulating for the indicated time, then ROS levels were measured by detection of the fluorescence intensity of the fluorophore carboxyl-DCF and expressed relative to those at time zero. In (B), J774A.1 macrophages (1×10^6/ml) were incubated with compound 1h (20 μM), DPI (100 μM), or DMSO (vehicle) for 30 min followed by LPS (1 μg/ml) stimulating for 5.5 h, then the cells were stimulated with ATP (5 mM) for the indicated time. The ROS levels were measured by detection of the fluorescence intensity of the fluorophore carboxyl-DCF and expressed relative to those at time zero. In (C), LPS-primed J774A.1 macrophages (1×10^6/ml) were incubated with compound 1h (20 μM) or DMSO (vehicle) for 30 min followed by ATP (5 mM) stimulating for 0-60 min, then the phosphorylation level of PKC-α was analyzed by Western blot.
Whole cell lysates were separated by SDS-PAGE and electrotransferred to a PVDF membrane. The membranes were incubated in blocking solution—5% nonfat milk in phosphate buffered saline with 0.1% Tween 20—at room temperature for 1 h. Each membrane was incubated with a specific primary antibody at room temperature for 2 h. […]

The next experiment relates to iNOS. The experiment in a line: Western blot of iNOS protein in LPS-activated RAW 264.7 macrophages. As to conditions: LPS-activated RAW 264.7, compared with vehicle. Format: cell-based, murine. Here is the method:
as §1, §4

For another experiment, the system named is NF-κB. Put plainly: NF-κB reporter assay (SEAP), RAW-Blue cells. The class given is cell-based, murine. As to conditions: compound 1h 2.5-40 μM, LPS 24 h. Here is the method: as §3
RAW-Blue™ cells, RAW 264.7 macrophages which stably express a secreted embryonic alkaline phosphatase (SEAP) gene inducible by NF-κB, were seeded in 60 mm dishes at a density of 5×10^5 cells/ml, and grown overnight in a 5% CO2 incubator at 37° C. […] Results of the SEAP activity were assessed by measuring the optical density at 655 nm using an ELISA reader.
(A reporter such as luciferase makes a cellular process visible.)

Consider 1 compound from patent US9475789B2, “Use of polyenylpyrrole derivatives for treating inflammation” (WELLHEAD BIOLOGICAL TECHNOLOGY CORP., priority 2014, dated 2016).

Structures are written as SMILES. Entries after “also recorded” stand apart in the source; their conditions may differ.

For the compound `O=c1cc(O)cc(/C=C/C=C/C=C/C=C/c2[nH]ccc2Cl)o1` [Compound 1h], in the experiment with TNF-α (LPS-activated RAW 264.7, LPS 1 μg/ml 24 h), the TNF-α secretion result is “slight reduced by compounds 1h, 1i and 1n, but not significantly”. Further, in the experiment on TNF-α (compound alone, no LPS, data not shown), the “background level of TNF-α” value is “did not alter”. In addition, the “secretion of IL-6” value with IL-6 is reported as “reduced”. In the experiment with IKK-α and IκB-α, the IκB-α degradation result was “partially rescued”, the “phosphorylation level of IKK-α” value is “inhibited” and the “phosphorylation level of IκB-α” value is “inhibited”. For the same compound, the “ATP-induced PKC-α phosphorylation” value with PKC-α is recorded as “inhibited”. Also, the “expression of iNOS protein” value with iNOS is reported as “decreased production; also recorded: reduced the expression of iNOS protein”. For the same compound, the NF-κB transcriptional activity entry in the experiment with NF-κB is reported as “reduced”.
